The results in this text go back to US8829034B2, “Compounds which modulate the CB2 receptor” (Boehringer Ingerlheim International GmbH, priority 2006, dated 2014).

Molecules are shown by their SMILES. Read-outs that look alike come from different tables or passages of the source.

One may read the EC50 as the concentration giving half of the maximal effect.

The assay has as its target T1, human CB2R (Homo sapiens, UniProt P34972).
T1 construct: host or cells: CHO cells
The experiment in a line: CB2R mediated modulation of cAMP synthesis. It is filed as cell-based. To be noted: for agonistic activity: found through the use of the above described assays. On the procedure:
B. CB2R Mediated Modulation of cAMP Synthesis:
CHO cells expressing human CB2R (Euroscreen) were plated at a density of 5000 cells per well in 384 well plates and incubated overnight at 37° C. After removing the media, the cells were treated with test compounds diluted in stimulation buffer containing 1 mM IBMX, 0.25% BSA and 10 uM Forskolin. The assay was incubated for 30 minutes at 37° C. Cells were lysed and the cAMP concentration was measured using DiscoverX-XS cAMP kit, following the manufacturer's protocol. In this setting, agonists will decrease forskolin induced production of cAMP while inverse agonists will further increase forskolin induced production of cAMP. EC50 of agonists were calculated as follows. The maximal amount of cAMP produced by forskolin compared to the level of cAMP inhibited by 1 uM CP55940 is defined as 100%. The EC50 value of each test compound was determined as the concentration at which 50% of the forskolin-stimulated cAMP synthesis was inhibited. Data was analyzed using a four-parameter logistic model. (Model 205 of XLfit 4.0).

T1 sequence (P34972 whole entry): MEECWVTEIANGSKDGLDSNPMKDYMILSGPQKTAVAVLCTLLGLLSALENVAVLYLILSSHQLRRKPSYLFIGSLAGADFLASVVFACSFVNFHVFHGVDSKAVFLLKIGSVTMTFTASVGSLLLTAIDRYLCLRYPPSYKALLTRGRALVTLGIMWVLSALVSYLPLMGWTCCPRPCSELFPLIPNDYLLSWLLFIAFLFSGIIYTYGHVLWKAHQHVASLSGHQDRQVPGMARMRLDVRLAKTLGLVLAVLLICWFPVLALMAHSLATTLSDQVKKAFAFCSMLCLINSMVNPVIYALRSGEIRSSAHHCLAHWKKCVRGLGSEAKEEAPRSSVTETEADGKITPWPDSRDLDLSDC

On to `CCCS(=O)(=O)C(C)(C)C(=O)Nc1nc(C(C)(C)C)cs1` [N-(4-tert-Butyl-thiazol-2-yl)-2-methyl-2-(propane-1-sulfonyl)-propionamide], for which the EC50 came to 19.2 nM and the agonistic activity entry is recorded as “agonistic activity”.
Take `CC(C)(C)C(=O)CS(=O)(=O)C(C)(C)C(=O)Nc1ccc(C(F)(F)F)cn1` [2-(3,3-Dimethyl-2-oxo-butane-1-sulfonyl)-2-methyl-N-(5-trifluoromethyl-pyridin-2-yl)-propionamide]: the concentration for a half-maximal effect (EC50) was found to be 41.5 nM and the agonistic activity entry is on record as “agonistic activity”.
With `CC(C)(C)c1cc(NC(=O)C(C)(C)S(=O)(=O)Cc2ccc(F)cc2)on1` [N-(3-tert-Butyl-isoxazol-5-yl)-2-(4-fluoro-phenylmethanesulfonyl)-2-methyl-propionamide], the EC50 was found to be 17 nM and the agonistic activity result was “agonistic activity”.
As to `CC(C)(C)c1cc(NC(=O)C(C)(C)S(=O)(=O)CC2CCCO2)no1` (stereo not drawn) [N-(5-tert-Butyl-isoxazol-3-yl)-2-methyl-2-(tetrahydro-furan-2-ylmethanesulfonyl)-propionamide], the EC50 is 70.5 nM and the agonistic activity entry was “agonistic activity”.
Consider `CCCS(=O)(=O)C(C)(C)C(=O)Nc1cc(C(F)(F)F)ccn1` [2-Methyl-2-(propane-1-sulfonyl)-N-(4-trifluoromethyl-pyridin-2-yl)-propionamide], for which the agonistic activity entry is reported as “agonistic activity”.
`CC(C)(C)c1cc(NC(=O)C(C)(C)S(=O)(=O)CC2CCCCC2)on1` [N-(3-tert-Butyl-isoxazol-5-yl)-2-cyclohexylmethanesulfonyl-2-methyl-propionamide]: the concentration giving a half-maximal response (EC50) turned out to be 0.1 nM and the agonistic activity result is on record as “agonistic activity”.
As to `CC(C)(C)c1csc(NC(=O)C(C)(C)S(=O)(=O)Cc2ccc(Cl)cc2)n1` [N-(4-tert-Butyl-thiazol-2-yl)-2-(4-chloro-phenylmethanesulfonyl)-2-methyl-propionamide], the agonistic activity entry is “agonistic activity”.
As for `CCCS(=O)(=O)C(C)(C)C(=O)Nc1cc(-c2cccs2)nn1C` [2-Methyl-N-(2-methyl-5-thiophen-2-yl-2H-pyrazol-3-yl)-2-(propane-1-sulfonyl)-propionamide], the agonistic activity entry is “agonistic activity”.
Still for that read-out and setting: for `CCc1ccnc(NC(=O)C(C)(C)S(=O)(=O)CC2CCOCC2)c1` [N-(4-Ethyl-pyridin-2-yl)-2-methyl-2-(tetrahydro-pyran-4-ylmethanesulfonyl)-propionamide] the value was “agonistic activity”.
Consider `CC(C)(C)c1cc(NC(=O)C(C)(C)S(=O)(=O)C2CCOCC2)no1` [N-(5-tert-Butyl-isoxazol-3-yl)-2-methyl-2-(tetrahydro-pyran-4-sulfonyl)-propionamide], for which the agonistic activity entry is “agonistic activity”. Further, the EC50 (CHO cells expressing human CB2R, inhibition of forskolin-stimulated cAMP synthesis, compounds having agonist activity, read-out: CB2 EC50) turned out to be 0.7 nM.
`CC(C)S(=O)(=O)C(C)(C)C(=O)Nc1cc2ccccc2cn1` [N-Isoquinolin-3-yl-2-methyl-2-(propane-2-sulfonyl)-propionamide]: the agonistic activity result is given as “agonistic activity”.
As to `CC(C)(C)c1cc(NC(=O)C(C)(C)S(=O)(=O)CC(F)(F)F)no1` [N-(5-tert-Butyl-isoxazol-3-yl)-2-methyl-2-(2,2,2-trifluoro-ethanesulfonyl)-propionamide], the agonistic activity entry is reported as “agonistic activity”.
Take `CC(C)(C)C(=O)CS(=O)(=O)C(C)(C)C(=O)Nc1cc(C(C)(C)C)on1` [N-(5-tert-Butyl-isoxazol-3-yl)-2-(3,3-dimethyl-2-oxo-butane-1-sulfonyl)-2-methyl-propionamide]: the EC50 worked out at 39.8 nM and the agonistic activity result was “agonistic activity”.
For `CC(C)(C(=O)Nc1cc2ccccc2cn1)S(=O)(=O)CC1CCOCC1` [N-Isoquinolin-3-yl-2-methyl-2-(tetrahydro-pyran-4-ylmethanesulfonyl)-propionamide], the EC50 was 99.1 nM and the agonistic activity entry was “agonistic activity”.
On to `CCCS(=O)(=O)C(C)(C)C(=O)Nc1ccc(-c2ccccc2)cn1` [2-Methyl-N-(5-phenyl-pyridin-2-yl)-2-(propane-1-sulfonyl)-propionamide], for which the agonistic activity entry is “agonistic activity”.
Turning to `Cn1nc(C(C)(C)C)cc1NC(=O)C(C)(C)S(=O)(=O)CC(C)(C)C` [N-(5-tert-Butyl-2-methyl-2H-pyrazol-3-yl)-2-(2,2-dimethyl-propane-1-sulfonyl)-2-methyl-propionamide], the agonistic activity result is given as “agonistic activity”.
As for `CC(C)(C(=O)Nc1ccc2ccccc2n1)S(=O)(=O)CC1CCOCC1` [2-Methyl-N-quinolin-2-yl-2-(tetrahydro-pyran-4-ylmethanesulfonyl)-propionamide], the midpoint of the response, the EC50, lay at 5.8 nM and the agonistic activity entry is on record as “agonistic activity”.
Regarding `CC(C)(C)Cc1cc(NC(=O)C(C)(C)S(=O)(=O)CC2CCOCC2)on1` [N-[3-(2,2-Dimethyl-propyl)-isoxazol-5-yl]-2-methyl-2-(tetrahydro-pyran-4-ylmethanesulfonyl)-propionamide], the EC50 was 74.3 nM and the agonistic activity result is listed as “agonistic activity”.
For `CC(C)CCS(=O)(=O)C(C)(C)C(=O)Nc1cc(C(C)(C)C)on1` [N-(5-tert-Butyl-isoxazol-3-yl)-2-methyl-2-(3-methyl-butane-1-sulfonyl)-propionamide], the EC50 came to 0.2 nM and the agonistic activity result is reported as “agonistic activity”.
Regarding `Cc1c(-c2ccccc2)nn(C)c1NC(=O)C(C)(C)S(=O)(=O)CC1CCOCC1` [N-(2,4-Dimethyl-5-phenyl-2H-pyrazol-3-yl)-2-methyl-2-(tetrahydro-pyran-4-ylmethanesulfonyl)-propionamide], the agonistic activity result is “agonistic activity”.
Turning to `CCCS(=O)(=O)C(C)(C)C(=O)Nc1c(C)c(-c2ccccc2)nn1C` [N-(2,4-Dimethyl-5-phenyl-2H-pyrazol-3-yl)-2-methyl-2-(propane-1-sulfonyl)-propionamide], the agonistic activity entry is given as “agonistic activity”.
For the molecule `CC(C)(C(=O)Nc1nc(-c2ccc(Cl)cc2)cs1)S(=O)(=O)CC1CCOCC1` [N-[4-(4-Chloro-phenyl)-thiazol-2-yl]-2-methyl-2-(tetrahydro-pyran-4-ylmethanesulfonyl)-propionamide], the EC50 is 2.2 nM and the agonistic activity entry is listed as “agonistic activity”.
For `CC(C)(C)c1cc(NC(=O)C(C)(C)S(=O)(=O)CC2CCCO2)on1` (stereo not drawn) [N-(3-tert-Butyl-isoxazol-5-yl)-2-methyl-2-(tetrahydro-furan-2-ylmethanesulfonyl)-propionamide] the same measures were 31.5 nM and “agonistic activity”.
For `CC(C)S(=O)(=O)C(C)(C)C(=O)Nc1cc(C(C)(C)C)on1` [N-(5-tert-Butyl-isoxazol-3-yl)-2-methyl-2-(propane-2-sulfonyl)-propionamide], the agonistic activity result is listed as “agonistic activity”.
Take `CCCS(=O)(=O)C(C)(C)C(=O)Nc1nc(C(F)(F)F)cs1` [2-Methyl-2-(propane-1-sulfonyl)-N-(4-trifluoromethyl-thiazol-2-yl)-propionamide]: the agonistic activity entry is recorded as “agonistic activity”.
Still for that read-out and setting: as for `CCCS(=O)(=O)C(C)(C)C(=O)Nc1nc(-c2ccncc2)cs1` [2-Methyl-2-(propane-1-sulfonyl)-N-(4-pyridin-4-yl-thiazol-2-yl)-propionamide], the entry is “agonistic activity”; as for `CC(C)(C)c1cc(NC(=O)C(C)(C)S(C)(=O)=O)no1` [N-(5-tert-Butyl-isoxazol-3-yl)-2-methanesulfonyl-2-methyl-propionamide], “agonistic activity”.
Regarding `CC(C)(C(=O)Nc1ccc(C(F)(F)F)cn1)S(=O)(=O)C1CCCC1` [2-Cyclopentanesulfonyl-2-methyl-N-(5-trifluoromethyl-pyridin-2-yl)-propionamide], the agonistic activity result is given as “agonistic activity”.
In the case of `CC(C)S(=O)(=O)C(C)(C)C(=O)Nc1nc2c(s1)CCCC2` [2-Methyl-2-(propane-2-sulfonyl)-N-(4,5,6,7-tetrahydro-benzothiazol-2-yl)-propionamide], the agonistic activity entry is listed as “agonistic activity”.
As for `Cn1nc(C(C)(C)C)cc1NC(=O)C(C)(C)S(=O)(=O)C(C)(C)C` [N-(5-tert-Butyl-2-methyl-2H-pyrazol-3-yl)-2-methyl-2-(2-methyl-propane-2-sulfonyl)-propionamide], the agonistic activity entry is recorded as “agonistic activity”.
As to `CC(C)(C)c1cc(NC(=O)C2(S(=O)(=O)CC3CCOCC3)CCC2)on1` [1-(Tetrahydro-pyran-4-ylmethanesulfonyl)-cyclobutanecarboxylic acid (3-tert-butyl-isoxazol-5-yl)-amide], the midpoint of the response, the EC50, lay at 6.2 nM and the agonistic activity result was “agonistic activity”.
For `CC(C)(C)c1cc(NC(=O)C(C)(C)S(=O)(=O)CC#N)no1` [N-(5-tert-Butyl-isoxazol-3-yl)-2-cyanomethanesulfonyl-2-methyl-propionamide], the agonistic activity result is “agonistic activity”.
As for `CC(C)(C(=O)Nc1ccc(C(F)(F)F)cn1)S(=O)(=O)C1CCCCC1` [2-Cyclohexanesulfonyl-2-methyl-N-(5-trifluoromethyl-pyridin-2-yl)-propionamide], it took 11.8 nM to reach a half-maximal effect (EC50) and the agonistic activity result was “agonistic activity”.
